ChEMBL document CHEMBL5303711, “ECBD screening data for assay EOS300108” (2023)
Activity calls are given as the source filed them. The rule behind the calls is not given here.

Experiment: Cytotoxicity activity against human HepG2 cells assessed by CellTiter-Glo luminescent cell viability assay.
Assay type: toxicity, cell-based
Parameters: assay stage confirmatory assay, source tissue liver
Conditions: HepG2 cells, read-out: IC50 relative

SMILES	CC50
O=C(Nc1ccc(Cl)c(Cl)c1)Nc1ccc(Cl)c(Cl)c1	13.1 µM (active)
Nc1nc(S)c2ncn(C3OC(CO)C(O)C3O)c2n1 (stereo not given)	2.5 µM (active)
COc1cc2c(NC3CCN(C(C)C)CC3)nc(C3CCCCC3)nc2cc1OCCCN1CCCC1	2.4 µM (active)
NCCNS(=O)(=O)c1cccc2cnccc12	13.2 µM (inactive)
NCCCCNS(=O)(=O)c1ccc2c(Cl)cccc2c1	13 µM (active)
O=[N+]([O-])c1ccc(NN=Cc2sc(N3CCOCC3)nc2-c2ccccc2)c(S(=O)(=O)Nc2ccccc2Cl)c1	2.7 µM (active)
c1ccc(-c2cn3c(n2)CCc2ccc4cccnc4c2-3)cc1	4 µM (active)
O=S(=O)(NCCNC/C=C/c1ccc(Br)cc1)c1cccc2cnccc12	9.7 µM (active)
CN(C)S(=O)(=O)c1cccc(-n2sc3ccccc3c2=O)c1	9.3 µM (active)
CC1(C)CC(Nc2ccc(Nc3ccccc3)cc2)CC(C)(C)N1	10.9 µM (active)
CCOc1cc(C(Nc2cc(C)ccn2)c2ccc3cccnc3c2O)ccc1OC (stereo not given)	3.7 µM (active)
O=[N+]([O-])c1ccc(CN2CCOCCOCCN(Cc3ccc([N+](=O)[O-])cc3)CCOCC2)cc1	10.4 µM (active)
Nc1c(C(=O)NCc2ccco2)c2nc3ccccc3nc2n1CCN1CCCCC1	8.9 µM (active)
CCC1=NNc2cccc3c(OC)ccc1c23	8.8 µM (active)
Cc1ccccc1OCc1n(CC(=O)OC2CC(C)CCC2C(C)C)c2ccccc2[n+]1C (stereo not given)	4.4 µM (active)
CC(C)(C)C(=O)/C(=C/c1cccc([N+](=O)[O-])c1)n1cncn1	0.6 µM (active)
COc1ccc2c(C)nc(Nc3nc(C)c(C)c(=O)[nH]3)nc2c1	6.7 µM (active)
O=C(Oc1c(Cl)cc(Cl)c2cccnc12)c1ccco1	8 µM (active)
O=C(Nc1cccnn1)N1CCC(=Cc2cccc(Oc3ccc(C(F)(F)F)cn3)c2)CC1	7.5 µM (active)
CC1OC(OC2CC(O)C3(CO)C4C(O)CC5(C)C(C6=CC(=O)OC6)CCC5(O)C4CCC3(O)C2)C(O)C(O)C1O (stereo not given)	0.1 µM (active)
Cc1ccc(C)c(-n2sc3cc(F)ccc3c2=O)c1	6.5 µM (active)
Cn1cc(/C=C2\C(=O)Nc3cccnc32)c2ccccc21	8.1 µM (inactive)
Cc1cc(Nc2nc(N[C@@H](C)c3ccc(F)cc3)c(C#N)cc2F)n[nH]1	2.7 µM (active)

SMILES	CC50
NC(=O)c1ccc2[nH]c(-c3ccc(Oc4ccc(Cl)cc4)cc3)nc2c1	14.7 µM (inactive)
COc1cc(/C=C(\C#N)C(=O)Nc2nnc(C(F)(F)F)s2)ccc1OCc1ccc(C(F)(F)F)cc1C(F)(F)F	12 µM (active)
CCN(c1nc(N)c(C(=O)NC(=N)N)nc1Cl)C(C)C	12.5 µM (active)
Cc1sc2c(c1C)C(c1ccc(Cl)cc1)=N[C@@H](CC(=O)OC(C)(C)C)c1nnc(C)n1-2	1.2 µM (active)
CCCCCCCC(=O)N[C@H](CN1CCCC1)[C@H](O)c1ccc2c(c1)OCCO2	15.7 µM (inactive)
Cc1c(C(=O)Nc2cccc(C(F)(F)F)c2)cc(-c2ccccc2)n1CCCN1CCOCC1	13.9 µM (inactive)
CCc1cncnc1N1CCN(Cc2nc3cc(C(F)(F)F)ccc3[nH]2)CC1	9.5 µM (active)
COc1ccccc1S(=O)(=O)Nc1ccc2c(c1)CN(C)C(=O)N2	3.7 µM (active)
CCCc1cc(C)[nH]c(=O)c1CNC(=O)c1cc(-c2ccnc(N3CCN(C)CC3)c2)cc2c1cnn2C(C)C	6 µM (active)
CC(C)(C)c1ccccc1Oc1ncccc1NC(=O)Nc1ccc(OC(F)(F)F)cc1	7.9 µM (active)
Cc1cc(Nc2ccc(NC(=O)c3ccc(Nc4ccnc5ccccc45)cc3)cc2)nc(N)n1	0.4 µM (active)
O=C(CC1Sc2ncnn2C1=O)Nc1ccc(Br)cc1 (stereo not given)	15.3 µM (inactive)
COc1cc2c(NC3CCN(C(C)C)CC3)nc(N3CCC(F)(F)CC3)nc2cc1OCCCN1CCCC1	3.1 µM (active)
NCC1CCC(CNc2nc(NCc3ccccc3OC(F)(F)F)ncc2[N+](=O)[O-])CC1 (stereo not given)	9.7 µM (active)
CCNC(=O)c1noc(-c2cc(Cl)c(O)cc2O)c1-c1ccc(OC)cc1	0.1 µM (active)
CCOC(=O)C(C)Oc1cccc2c(=O)n(CC(=O)Nc3ccc(OC)cc3)ccc12 (stereo not given)	15.4 µM (inactive)
Cc1nnsc1C(=O)Nc1ccc(-n2nc(C(F)(F)F)cc2C(F)(F)F)cc1	9.9 µM (active)
Nc1ncnc2c1ncn2[C@@H]1CC[C@@H](O)[C@H]1O	1.6 µM (active)
CCCCOc1c(C(=O)c2c(F)cc(C)cc2F)c[nH]c2nncc1-2	50 µM (inactive)
CCOC(=O)CCNc1cc(N2CCc3ccccc3CC2)nc(-c2ccccn2)n1	7.5 µM (active)
C=CCN(C)CCCCCCOc1ccc(C(=O)c2ccc(Br)cc2)c(F)c1	2.8 µM (active)
N#Cc1ccc(NC(=O)NCc2cnc3scc(-c4ccc(Br)cc4)n23)cc1	35 µM (active)
CCCc1cc(C)[nH]c(=O)c1CNC(=O)c1cc(-c2ccc(N3CCN(C(C)C)CC3)nc2)cc2c1cnn2C(C)C	2.6 µM (active)

SMILES	CC50
Cc1cn(CCN2CCN(c3ccccc3-c3cc(C#N)cc(C(=O)NCCCN4CCCC4)c3)CC2)c2ccccc12	1.4 µM (active)
Brc1c(Br)c(Br)c2[nH]cnc2c1Br	7.4 µM (active)
CN(C)c1nc2c(Br)c(Br)c(Br)c(Br)c2[nH]1	50 µM (inactive)
Oc1cc2c(cc1C(c1ccc(C(F)(F)F)cc1)N1CCOCC1)OCO2 (stereo not given)	26 µM (inactive)
CC(C)Oc1ccc(-c2c[nH]cc2CN(C)CCN)cc1	23.3 µM (inactive)
O=C(NCCN1CCC(n2c(=O)[nH]c3ccccc32)CC1)c1cc2cc(F)ccc2[nH]1	6.4 µM (active)
NC(=O)Nc1sc(-c2ccccc2)cc1C(N)=O	7.9 µM (active)
CCN1/C(=C/c2ccc3ccccc3[n+]2CC)C=Cc2ccccc21	1 µM (active)
Nc1ccc2c(c1)C(=O)C(=O)c1ccccc1-2	4.2 µM (active)
Cc1sc2c(c1C)C(c1ccc(Cl)cc1)=N[C@@H](CC(N)=O)c1nnc(C)n1-2	0.3 µM (active)
CCC(=O)Nc1cccc(Oc2nc(Nc3ccc(N4CCN(C)CC4)cc3OC)ncc2Cl)c1	2.8 µM (active)
O=C1C(=O)c2cc([N+](=O)[O-])ccc2-c2ccccc21	1.5 µM (active)
COc1cc2c(N3CCN(C(=O)Nc4ccc(OC(C)C)cc4)CC3)ccnc2cc1OCCCN1CCCCC1	7.4 µM (active)
C[C@]12CCC3[C@@H](CC[C@]4(O)C[C@@H](O)CC[C@]34C=O)[C@@]1(O)CC[C@@H]2C1=CC(=O)OC1 (stereo not given in full)	0.4 µM (active)
CC1CC[C@@]2(NC1)O[C@H]1C[C@H]3[C@@H]4CC=C5CC(O)CCC5(C)C4CCC3(C)[C@H]1[C@@H]2C (stereo not given in full)	25.1 µM (inactive)
O=C(Nc1nc2ccc(NC(=O)C34CC5CC(CC(C5)C3)C4)cc2s1)c1ccccc1	15 µM (inactive)
COc1ccc(N2C(=O)/C(=C\c3ccc(O)c(Br)c3)SC2=S)cc1	10.3 µM (active)
CCN1/C(=C/C(C)=C/c2sc3ccccc3[n+]2CC)Sc2ccccc21	0.4 µM (active)
CCC(C)C1OC2(CCC1C)CC1CC(C/C=C(/C)C(OC3CC(OC)C(OC4CC(OC)C(O)C(C)O4)C(C)O3)C(C)/C=C\C=C3\COC4C(O)C(C)=CC(C(=O)O1)C34O)O2 (stereo not given)	11.1 µM (active)
COc1ccc2c(O[C@@H]3C[C@H]4C(=O)N[C@]5(C(=O)NS(=O)(=O)C6CC6)C[C@H]5/C=C\CCCCN(C)C(=O)[C@@H]4C3)cc(-c3nc(C(C)C)cs3)nc2c1C	8.6 µM (active)
CCN1CCN(C(=O)Cc2ccc(Nc3ncc(F)c(Nc4ccc(C(=O)Nc5ccccc5Cl)cc4)n3)cc2)CC1	1.8 µM (active)
COc1cc(C(=O)N2CC[C@@H](O)[C@@H](N)C2)cc2nc(-c3cc4ccccc4n3CC3CC3)n(C)c12	6.1 µM (active)
OCCn1cc(-c2ccc3c(c2)CC/C3=N\O)c(-c2ccncc2)n1	1.1 µM (active)

SMILES	CC50
COC1=C2C[C@@H](C)C[C@H](OC)[C@H](O)[C@@H](C)/C=C(/C)[C@H](OC(N)=O)[C@@H](OC)/C=C\C=C(\C)C(=O)NC(=CC1=O)C2=O	< 0.1 µM (active)
O=C(N[C@H]1CN2CCC1CC2)c1cc2cccc(Cl)c2s1	5.9 µM (active)
Nc1ccc(O)c2ncccc12	1.4 µM (active)
COc1c(Nc2ncc(Cl)c(N[C@H]3[C@@H](C(N)=O)[C@@H]4C=C[C@H]3C4)n2)ccc2c1CC[C@@H](N1CCOCC1)CC2	2 µM (active)
Cc1cc(O)c(-c2ccc([C@@H](C)CN(C)C)cc2)c2c1[nH]c(=O)c1sccc12	0.1 µM (active)
c1ccc2c(NCCCCCCNc3c4c(nc5ccccc35)CCCC4)c3c(nc2c1)CCCC3	1.2 µM (active)
COc1ccc(OC2CCN(CCC(=O)Nc3cccc(F)c3)CC2)cc1	14.8 µM (inactive)
O=C1COc2c(CCNCCN(C(=O)CCNCCc3ccc(Cl)c(Cl)c3)C3CCCCC3)ccc(O)c2N1	10.5 µM (active)
NC(=O)c1cnc2[nH]ccc2c1N[C@@H]1[C@@H]2C[C@@H]3C[C@H]1C[C@@](O)(C3)C2	8 µM (active)
CC1(C)CN2C(CS/C(=N\C3CCCCC3)NC3CCCCC3)=CSC2=N1	6 µM (active)
NCc1ccc(-c2ccccc2)s1	5.9 µM (active)
CC1(C)N=C(N)N=C(N)N1c1ccc(Br)cc1	9.1 µM (inactive)
Oc1ccc2c(c1)CC[C@H](c1ccccc1)[C@@H]2c1ccc(OCCN2CCCC2)cc1	2.9 µM (active)
Nc1nc(NC[C@H]2CC[C@H](CNS(=O)(=O)c3cccc4ccccc34)CC2)nc2ccccc12	2 µM (active)
CN1C/C=C\CCOc2cccc(c2)-c2ccnc(n2)Nc2cccc(c2)C1	< 0.1 µM (active)
Fc1ccc(C(OCCN2CCN(CCCc3ccccc3)CC2)c2ccc(F)cc2)cc1	5.7 µM (active)
COc1cccc(C(=O)Nc2ncc(Cc3cccc(C(F)(F)F)c3)s2)c1	8 µM (active)
CC(=O)NC(c1ccccc1)c1cc(Cl)c2cccnc2c1O (stereo not given)	1.4 µM (active)
O=C1c2ccccc2-c2n[nH]c3cccc1c23	6.2 µM (active)
CC1(C)N=C(N)N=C(N)N1c1cccc(Cl)c1	0.9 µM (active)
Cc1ccc(Sc2cccc3nc(N)nc(N)c23)cc1	8.3 µM (active)
